≈ marks a conversion by molar mass, not a printed value. Non-standard residues stand in square brackets, D forms with d. Residues, ends and D or L forms follow the SMILES beside them. No end group written: not given here. Dopa = N[C@@H](Cc1ccc(O)c(O)c1)C(=O)O; AEEA = NCCOCCOCC(=O)O
Test: Water solubility determined spectroscopically (absorbance at 280 nm)
Type: physicochemical
Conditions: direct dissolution of powder in bidistilled water, centrifuged solutions, UV absorbance at 280 nm with calculated ε
Protocol: Peptide solutions were prepared by direct dissolution of pure powders in bidistilled water. The analytical concentration of solutions was spectroscopically determined by absorbance on a UV–vis Thermo Fisher Scientific Inc. (Wilmington, Delaware, USA) Nanodrop 2000c spectrophotometer equipped with a 1.0 cm quartz cuvette (Hellma) using the molar absorptivity (ε) at 280 nm reported in Table 1. For each peptide, the ε was calculated using the formula ε(280)= [x·5500 + y·1215 + k·2630] [L·cm^–1·mol^–1], where x, y, and k were the numbers of W, Y, and Dopa residues, respectively. […] Hydrogel formation was triggered using the “solvent switch” method, which consists of the addition of water to a peptide stock solution (100 mg/mL in DMSO). The peptide concentration after water addition was 1.0 wt % (10.0 mg/mL).
To deeply investigate the molecular determinant that can positively or negatively affect the aggregation process, herein, we evaluated the impact generated by replacement of the Phe residue with the Trp (W) one. Trp was selected to assess the effect of a more sterically hindered residue containing the heteroaromatic indole group. On the other side, Tyr residues were replaced by Dopa, characterized by the catechol group in place of the phenol one. Using this design, two novel peptides [(WY)3 and (W-Dopa)3] and their N-PEGylated analogues [PEG8-(WY)3 and PEG8-(W-Dopa)3] were designed (Figure 1). The novel sequences were synthesized using a solid-phase approach, according to the Fmoc/tBu protocols on Rink amide MBHA resin. This support allows for obtaining amidation of the C-terminus. Due to the major steric hindrance of the Trp residue, the synthesis of these primary sequences was more difficult than the previously reported ones and required the employment of a DMF/NMP mixture as solvent. After purification, peptides were lyophilized and their identity was assessed by LC-MS (Figures S1–S4 and Table 1). The estimation of the peptide solubility was spectroscopically determined by recording the absorbance spectra (Figure S5) on the centrifuged peptide solutions. […] As expected, peptides derivatized with the PEG moiety are more soluble than their corresponding unPEGylated versions, thus confirming PEGylation as a helpful strategy to improve intrinsic water solubility of all-aromatic sequences.

Compound	solubility thermodynamic
NC(=O)[C@H](Cc1ccc(O)c(O)c1)NC(=O)[C@H](Cc1c[nH]c2ccccc12)NC(=O)[C@H](Cc1ccc(O)c(O)c1)NC(=O)[C@H](Cc1c[nH]c2ccccc12)NC(=O)[C@H](Cc1ccc(O)c(O)c1)NC(=O)[C@@H](N)Cc1c[nH]c2ccccc12 [(W-Dopa)3] (H-W[Dopa]W[Dopa]W[Dopa]-NH2)	7610 µg/mL (≈ 6.84 mM)
NCCOCCOCC(=O)NCCOCCOCC(=O)NCCOCCOCC(=O)NCCOCCOCC(=O)N[C@@H](Cc1c[nH]c2ccccc12)C(=O)N[C@@H](Cc1ccc(O)c(O)c1)C(=O)N[C@@H](Cc1c[nH]c2ccccc12)C(=O)N[C@@H](Cc1ccc(O)c(O)c1)C(=O)N[C@@H](Cc1c[nH]c2ccccc12)C(=O)N[C@@H](Cc1ccc(O)c(O)c1)C(N)=O [PEG8-(W-Dopa)3] (H-[AEEA][AEEA][AEEA][AEEA]W[Dopa]W[Dopa]W[Dopa]-NH2)	15000 µg/mL (≈ 8.86 mM)
NCCOCCOCC(=O)NCCOCCOCC(=O)NCCOCCOCC(=O)NCCOCCOCC(=O)N[C@@H](Cc1c[nH]c2ccccc12)C(=O)N[C@@H](Cc1ccc(O)cc1)C(=O)N[C@@H](Cc1c[nH]c2ccccc12)C(=O)N[C@@H](Cc1ccc(O)cc1)C(=O)N[C@@H](Cc1c[nH]c2ccccc12)C(=O)N[C@@H](Cc1ccc(O)cc1)C(N)=O [PEG8-(WY)3] (H-[AEEA][AEEA][AEEA][AEEA]WYWYWY-NH2)	3770 µg/mL (≈ 2.29 mM)
WYWYWY-NH2 [(WY)3]	1150 µg/mL
